Results: patent US20030055073A1, “Remedies for sjoegren's syndrome” (priority 2000, published 2003)

Assays:
[1] = system: NFS/sld female mice (thymic gland extracted on the 3rd day after birth; Sjögren's syndrome model); test: Gland liquid secretion after pilocarpine stimulation in model mouse of naturally crisis Sjögren's syndrome; type: in vivo; settings: 5 μg/kg/day s.c. once per day from 3 to 8 week age; 8th week, 0.5 mg/kg pilocarpine hydrochloride i.p.; measured for 35 minutes at 5 minute intervals
Description: (§1) NFS/sld female mice of which thymic gland have been extracted on the 3rd day after the birth have Sjögren's syndrome after 4 weeks (Journal of Immunology, 153, 2769 (1994)). The compound represented by formula (la) of the present invention was subcutaneously administered once per day (5 μg/kg/day) to the mice from 3 week age to 8 week age which were immediately before histologic grand disorder was observed. The experiment was carried out for 3 non-administered groups (pathologic control) and 5 administered groups. In the 8th week, a stimulating agent (0.5 mg/kg pilocarpine hydrochloride) was intraperitoneally administered, and an amount of salivary gland liquid and an amount of lacrimal gland liquid were measured and evaluation was carried out by tissue findings.
Tables 1 and 2 show amounts of gland liquids (salivary gland secretory liquid and lacrimal gland secretory liquid) as cumulative rates (AUC) which measured for 35 minutes at the interval of 5 minutes after the administration of the stimulating agent.

[2] = Toxicity: maximum tolerated dose with an intravenous injection; settings: mouse, in vivo, mice
Description: The toxicity of the compound represented by formula (I), (IA) or (Ia) of the present invention is very low and it was confirmed that it is sufficiently safe as a medicament. For example, a maximum tolerated dose with an intravenous injection using the compound represented by formula (Ia) of the present invention is 30 mg/kg in mice.

[3] = system: NFS/sld female mice (thymic gland extracted on the 3rd day after birth; Sjögren's syndrome model); test: Laesio score by tissue findings of target organs in model mouse of Sjögren's syndrome (standard of White and Casarett); type: in vivo; settings: 5 μg/kg/day s.c., 3 to 8 week age
Description: as §1
The score is improved at a factor of ⅓ to ½ in each gland. The score was obtained based on the standard of White and Casarett (Journal of Immunology, 112, 178 (1974)).

C[C@H]1CC(=N)N[C@@H]2[C@H](Cl)[C@@H]21 [formula (Ia), (+)-trans-3-imino-5-methyl-7-chloro-2-azabicyclo[4.1.0]heptane]
Lacrimal gland secretory liquid after administration of stimulating agent AUC0-35 minutes [1]: 0.798 mm/animal weight (g)
Salivary gland secretory liquid after administration of stimulating agent AUC0-35 minutes [1]: 15.8 μl/animal weight (g)
MTD [2]: 30 mg/kg
laesio score improved at a factor of (versus non-administered group) ([3]; each gland, score by standard of White and Casarett): ⅓ to ½
inhibition effect on laesio for each target organ ([3]; submaxillary salivary gland, sublingual gland, parotid gland, lacrimal gland, FIG. 1): significant inhibition effects on laesio
